Test results published in patent US20200239938A1 (priority 2017, published 2020).

Legend:
Type in all cases: cell-based
[1] = tested on: Salmonella enterica subsp. enterica DSM-5569; assay: drop plate enumeration of viable cells on tryptic soy agar; parameters: key to drop plate growth: +++: bacterial lawn; ++: few colonies; +: single colonies; −: no growth observable; conditions: for viable cells at the start of cultivation: 0 h
Text: (§1) The pathogens of interest Salmonella enterica subsp. enterica and Campylobacter jejuni were cultivated in microtiter plate scale in order to enable the simultaneous application of four different starting culture concentrations and treatments (Table 3). For analysis, samples for DNA extraction were taken after different times of cultivation and applied for qPCR enumeration of Salmonella enterica subsp. enterica and Campylobacter jejuni specific genes. As the qPCR assay is designed to record both viable and non-viable cells, an additional viability check was performed for AB treated cultures and the untreated controls.
(§2) In order to evaluate the effect of bactericidic effect Kanamycin, drop plate tests were performed to determine the number of viable cells. Three dilutions of a ten-fold series of the high (dilutions 10^−3, 10^−4 and 10^−5) and low (dilutions 10′, 10^−2 and 10^−3) inoculated culture after 0 and 6 h were plated in triplicates on CBA (Campylobacter) or tryptic soy agar (TSA) (Salmonella) by dropping 10 μl on the agar. The plates were evaluated regarding growth at the distinct log dilutions after 24 h incubation (41° C. microaerophilic for Campylobacter, 37° C. aerobic for Salmonella).

[2] = tested on: Campylobacter jejuni DSM-24306; assay: drop plate enumeration of viable cells on Columbia Blood Agar; parameters: key: +++: bacterial lawn; ++: few colonies; +: single colonies; −: no growth observable
[3] = tested on: Campylobacter jejuni DSM-24306; assay: as above; parameters: key to drop plate growth: +++: bacterial lawn; ++: few colonies; +: single colonies; −: no growth observable; conditions: for viable cells at the start of cultivation: 0 h
Text: as §1, §2

[4] = tested on: Campylobacter jejuni DSM-24306; assay: microtiter plate cultivation assay with qPCR enumeration of the Cj0414 target gene (growth curves, growth rate); conditions: Butyrate 25 mM; for growth rate: cultivation period of 0 to 7 h, very high to low inoculum, GutCare 10% (v/v)
Text: as §1
For Campylobacter jejuni experiments the DSMZ strain DSM-24306 was applied. The inoculum culture was produced by a first overnight cultivation on Columbia Blood Agar (CBA) followed by an overnight cultivation in Mueller-Hinton broth (MH). All cultivations took place under microaerophilic conditions (5% O2, 10% CO2, and […]) at 41° C.
The actual assay was carried out in microtiter plate format containing a total volume of 200 μl. Following media for the different treatment conditions were prepared according to Table 4. For the probiotic treatments (Ecobiol and GutCare), sterile filtrated supernatant of an overnight culture (=cell-free) or non-sterile filtrated, cell-containing supernatant of the same overnight culture was applied.
For C. jejuni all treatments were prepared in MH medium and for S. enterica in LBG respectively. Strains were cultivated under the conditions described in 2.1. Inoculated medium without any treatment served as an untreated control.
For each intervention and for the untreated control, following inoculum concentrations given in starting quantity of the Salmonella enterica subsp. enterica and Campylobacter jejuni specific target gene per ml culture were applied for the start of the assay:
From each concentration and treatment, enough wells were prepared to extract DNA from three well replicates per time point and treatment. For Campylobacter, DNA was extracted after 0, 7, 24 and 48 h. For Salmonella, 0, 2, 4, 6, 24 and 30 h of cultivation were chosen. […]
(§3) For enumeration of Salmonella or Campylobacter, primers and probes binding in conserved genetic regions, specific for each species were applied in qPCR assays with a total volume of 30 μl and a DNA eluate volume of 10 μl. […] Absolute quantification of targets was performed under consolidation of standard curves that were carried with each run. Using the standard curves, the starting quantity (SQ) of the specific target was calculated for each sample. […]
To outline the effect of each treatment, the difference of growth rates between untreated and treated cultures was calculated for each starting inoculum concentration as following: […]

[5] = tested on: Salmonella enterica subsp. enterica DSM-5569; assay: drop plate enumeration of viable cells on tryptic soy agar; parameters: key: +++: bacterial lawn; ++: few colonies; +: single colonies; −: no growth observable
[6] = tested on: Salmonella enterica subsp. enterica DSM-5569; assay: microtiter plate cultivation assay with qPCR enumeration of the hilA target gene (growth curves, growth rate)
Text: as §1, with “controls. […]” for “controls.”
For each intervention and for the untreated control, following inoculum concentrations given in starting quantity of the Salmonella enterica subsp. enterica and Campylobacter jejuni specific target gene per ml culture were applied for the start of the assay: […]
as §3

[7] = High concentrated, After 0 h, dilution 10^−5
[8] = High concentrated, After 6 h, dilution 10^−5
[9] = Low concentrated, After 0 h, dilution 10^−3
[10] = Low concentrated, After 6 h, dilution 10^−3
[11] = High concentrated, After 0 h, dilution 10^−6
[12] = High concentrated, After 0 h, dilution 10^−7
[13] = High concentrated, After 6 h, dilution 10^−6
[14] = High concentrated, After 6 h, dilution 10^−7
[15] = Low concentrated, After 0 h, dilution 10^−4
[16] = Low concentrated, After 0 h, dilution 10^−5
[17] = Low concentrated, After 6 h, dilution 10^−4
[18] = Low concentrated, After 6 h, dilution 10^−5

SMILES: NC[C@H]1O[C@H](O[C@H]2[C@H](O)[C@@H](O[C@H]3O[C@H](CO)[C@@H](O)[C@H](N)[C@H]3O)[C@H](N)C[C@@H]2N)[C@H](O)[C@@H](O)[C@@H]1O [Kanamycin]
- drop plate growth [1, 7]: +++
- drop plate growth [1, 8]: −
- drop plate growth [1, 9]: +++
- drop plate growth [1, 10]: −
- viable cells at the start of cultivation ([1]; high concentrated inoculum): 6-7 log
- viable cells at the start of cultivation ([1]; low concentrated inoculum): 5 log
- drop plate growth [2, 11]: +
- drop plate growth [2, 12]: −
- drop plate growth [2, 13]: −
- drop plate growth [2, 14]: −
- drop plate growth [2, 15]: ++
- drop plate growth [2, 16]: +
- drop plate growth [2, 17]: −
- drop plate growth [2, 18]: −
- drop plate growth [3, 7]: ++
- drop plate growth [3, 8]: −
- drop plate growth [3, 9]: ++
- drop plate growth [3, 10]: −
- viable cells at the start of cultivation ([3]; high concentrated inoculum): 6-7 log
- viable cells at the start of cultivation ([3]; low concentrated inoculum): 5 log
- growth rate ([4]; Kanamycin 50 μl/ml): ~0.13
- drop plate growth [5, 11]: ++
- drop plate growth [5, 12]: +
- drop plate growth [5, 13]: −
- drop plate growth [5, 14]: −
- drop plate growth [5, 15]: ++
- drop plate growth [5, 16]: +
- drop plate growth [5, 17]: −
- drop plate growth [5, 18]: −

SMILES: CCCC(=O)[O-].[Na+] [sodium butyrate, Sodium butyrate]
- growth curve (target starting quantity (SQ) per ml culture, qPCR) ([4]; all inoculum concentrations, MH medium, 41° C. microaerophilic, GutCare (cell-free) 10% (v/v), Kanamycin 50 μl/ml, 0-48 h): inhibitory effect
- plateau SQ ([4]; compared with untreated control): significantly lower plateau SQ
- growth rate ([4]; Kanamycin 50 μl/ml): around 0.24
- difference of the growth rates (delta) from untreated control ([6]; 0 to 7 h, in relation to inoculum concentration (very high to low)): effect is rather low for all concentrations
- growth curve (target starting quantity (SQ) per ml culture, qPCR) ([6]; all inoculum concentrations, LBG, 37° C. aerobic, Butyrate 25 mM, Ecobiol 10% (v/v), 0-30 h): strong exponential growth during the first 7 h
